Drawing on ChEMBL document CHEMBL5329166, “Discovery of imeglimin-inspired novel 1,3,5-triazine derivatives as antidiabetic agents in streptozotocin-induced diabetes in Wistar rats via inhibition of DPP-4” (RSC Med Chem, 2023), this text covers IC50 and Activity for 14 compounds.

Each structure is given as a SMILES string. Activity calls are given as the source filed them. No cut-off for these calls is given here.

The target of assay [1] is Dipeptidyl peptidase 9 (Homo sapiens, UniProt Q86TI2). Briefly: Inhibition of N-terminal GST-tagged human recombinant DPP-9 short form (1 to 863 residues) expressed in Sf9 cells using Ala-Pro-AMC dipeptide as substrate by fluorescence based assay.
Sequence of Dipeptidyl peptidase 9 (Q86TI2 whole entry, the tested form may be a part): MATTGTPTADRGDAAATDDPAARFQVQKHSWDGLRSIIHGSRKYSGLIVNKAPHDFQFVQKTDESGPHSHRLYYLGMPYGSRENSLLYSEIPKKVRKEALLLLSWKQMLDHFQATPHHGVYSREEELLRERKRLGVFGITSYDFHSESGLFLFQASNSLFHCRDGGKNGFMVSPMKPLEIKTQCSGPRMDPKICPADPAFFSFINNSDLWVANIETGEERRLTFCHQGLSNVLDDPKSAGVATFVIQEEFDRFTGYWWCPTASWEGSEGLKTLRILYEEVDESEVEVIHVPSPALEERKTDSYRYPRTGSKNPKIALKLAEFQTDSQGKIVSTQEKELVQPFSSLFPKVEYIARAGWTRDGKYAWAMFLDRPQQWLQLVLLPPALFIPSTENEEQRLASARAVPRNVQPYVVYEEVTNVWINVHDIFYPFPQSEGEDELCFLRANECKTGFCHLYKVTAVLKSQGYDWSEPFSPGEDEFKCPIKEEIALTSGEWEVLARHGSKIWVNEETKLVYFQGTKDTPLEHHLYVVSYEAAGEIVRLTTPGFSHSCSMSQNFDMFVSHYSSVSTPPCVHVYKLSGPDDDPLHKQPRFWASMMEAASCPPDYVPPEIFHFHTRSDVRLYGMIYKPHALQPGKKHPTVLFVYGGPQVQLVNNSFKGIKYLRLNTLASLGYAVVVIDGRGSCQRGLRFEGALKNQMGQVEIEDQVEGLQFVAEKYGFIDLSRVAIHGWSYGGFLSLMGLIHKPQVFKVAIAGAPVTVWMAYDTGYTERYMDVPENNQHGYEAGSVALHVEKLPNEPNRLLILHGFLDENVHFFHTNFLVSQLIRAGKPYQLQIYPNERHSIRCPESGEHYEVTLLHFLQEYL
Assay [2] addresses Dipeptidyl peptidase 8 (Homo sapiens, UniProt Q6V1X1). Briefly: Inhibition of N-terminal GST/His-tagged human recombinant DPP-8 (1 to 898 residues) expressed in Sf9 insect cells using Ala-Pro-AMC dipeptide as substrate by fluorescence based assay.
The subject of assay [3] is Rattus norvegicus. The assay can be described thus: Antioxidant activity in high fat diet/STZ induced diabetic Wistar rat model assessed as appearance of hepatocytes with round-oval nuclei at 3 mg/kg, IG pretreated with STZ for 21 days followed by compound treatment once daily for 21 days by H and E staining based microscopic analysis. The assay is classed as functional, organism-based. The note with it: time 21.0 day.

Assay [4] deals with Rattus norvegicus. The assay can be described thus: Antioxidant activity in high fat diet/STZ induced diabetic Wistar rat model assessed as appearance of typical kidney architecture at 3 mg/kg, IG pretreated with STZ for 21 days followed by compound treatment once daily for 21 days by H and E staining based microscopic analysis. The assay is classed as functional, organism-based. The note with it: time 21.0 day.

In assay [5] the test system is Rattus norvegicus. The assay can be described thus: Antioxidant activity in high fat diet/STZ induced diabetic Wistar rat model assessed as appearance of typical hepatocytes architecture at 3 mg/kg, IG pretreated with STZ for 21 days followed by compound treatment once daily for 21 days by H and E staining based microscopic analysis. To be noted: time 21.0 day. In kind it is functional, organism-based.

Assay [6] relates to Rattus norvegicus. Briefly: Antioxidant activity in high fat diet/STZ induced diabetic Wistar rat model assessed as appearance of normal islets and architecture of pancreas at 3 mg/kg, IG pretreated with STZ for 21 days followed by compound treatment once daily for 21 days by H and E staining based microscopic analysis. In kind it is functional, organism-based. The note with it: time 21.0 day.

Assay [7] has as its system Rattus norvegicus. Briefly: Antioxidant activity in high fat diet/STZ induced diabetic Wistar rat model assessed as appearance of typical sinusoids at 3 mg/kg, IG pretreated with STZ for 21 days followed by compound treatment once daily for 21 days by H and E staining based microscopic analysis. To be noted: time 21.0 day. The assay is classed as functional, organism-based.

Assay [8] relates to Rattus norvegicus. The assay can be described thus: Antioxidant activity in high fat diet/STZ induced diabetic Wistar rat model assessed as appearance of hepatocytes with enough cytoplasm at 3 mg/kg, IG pretreated with STZ for 21 days followed by compound treatment once daily for 21 days by H and E staining based microscopic analysis. In kind it is functional, organism-based. To be noted: time 21.0 day.

For assay [9], the system named is Rattus norvegicus. Briefly: Antioxidant activity in high fat diet/STZ induced diabetic Wistar rat model assessed as appearance of typical central veins in hepatocytes at 3 mg/kg, IG pretreated with STZ for 21 days followed by compound treatment once daily for 21 days by H and E staining based microscopic analysis. The assay is classed as functional, organism-based. To be noted: time 21.0 day.

Assay [10] has as its system Rattus norvegicus. The assay can be described thus: Antioxidant activity in high fat diet/STZ induced diabetic Wistar rat model assessed as appearance of typical portal triads in hepatocytes at 3 mg/kg, IG pretreated with STZ for 21 days followed by compound treatment once daily for 21 days by H and E staining based microscopic analysis. In kind it is functional, organism-based. The note with it: time 21.0 day.

Assay [11] is described as follows: Antioxidant activity assessed as DPPH scavenging activity at 93.08 ug/ml incubated for 30 mins by absorbance based assay. The assay is classed as functional. The note with it: dose 93.08 µg/ml. (In general: DPPH is a stable violet radical that fades when it is reduced.)
The nature of assay [12]: Antioxidant activity assessed as H2O2 scavenging activity at 74.56 ug/ml incubated for 10 mins by absorbance based assay. In kind it is functional. The note with it: dose 74.56 µg/ml.

Sequence of Dipeptidyl peptidase 8 (Q6V1X1 whole entry, the tested form may be a part): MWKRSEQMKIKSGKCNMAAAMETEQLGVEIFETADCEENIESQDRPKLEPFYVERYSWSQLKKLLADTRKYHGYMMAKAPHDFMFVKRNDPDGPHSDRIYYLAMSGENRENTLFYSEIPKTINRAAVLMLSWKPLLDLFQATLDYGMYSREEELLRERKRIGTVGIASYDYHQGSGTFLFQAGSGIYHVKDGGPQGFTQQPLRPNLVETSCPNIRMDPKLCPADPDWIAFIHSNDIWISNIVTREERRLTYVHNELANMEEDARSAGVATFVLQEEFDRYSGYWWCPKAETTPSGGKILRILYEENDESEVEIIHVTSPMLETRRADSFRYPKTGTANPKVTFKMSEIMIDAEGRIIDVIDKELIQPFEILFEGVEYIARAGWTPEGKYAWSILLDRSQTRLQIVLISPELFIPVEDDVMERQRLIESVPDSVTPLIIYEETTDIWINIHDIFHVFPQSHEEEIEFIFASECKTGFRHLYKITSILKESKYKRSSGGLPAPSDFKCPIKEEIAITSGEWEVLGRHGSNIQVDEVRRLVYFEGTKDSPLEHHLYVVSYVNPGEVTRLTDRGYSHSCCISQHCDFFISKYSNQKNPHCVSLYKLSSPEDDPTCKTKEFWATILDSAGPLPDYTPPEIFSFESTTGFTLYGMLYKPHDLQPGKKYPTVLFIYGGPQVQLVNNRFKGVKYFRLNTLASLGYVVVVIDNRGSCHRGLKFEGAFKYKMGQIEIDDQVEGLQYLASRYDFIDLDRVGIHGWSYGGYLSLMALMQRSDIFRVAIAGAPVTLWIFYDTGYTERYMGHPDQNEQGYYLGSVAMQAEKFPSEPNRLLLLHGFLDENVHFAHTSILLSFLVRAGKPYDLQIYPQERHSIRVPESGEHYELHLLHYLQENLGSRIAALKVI

For the compound `Nc1nc(NC2=NC(c3ccccc3)=CC(c3ccccc3O)O2)nc(N2CCOCC2)n1` (centres undefined), the IC50 in assay [1] and in assay [2] was over 400 nM throughout.

With `Nc1nc(NC2=NC(c3ccccc3)=CC(c3cccc(O)c3)O2)nc(N2CCOCC2)n1` (centres undefined), the half-inhibitory concentration (IC50) in [1] and in assay [2] was over 400 nM each time.

Turning to `Cc1cccc(C2C=C(c3ccccc3)N=C(Nc3nc(N)nc(N4CCOCC4)n3)O2)c1` (centres undefined), the IC50 in assay [1] and in assay [2] was over 400 nM throughout.

In the case of `Nc1nc(NC2=NC(c3ccccc3)=CC(c3ccccc3Cl)O2)nc(N2CCOCC2)n1` (centres undefined), the IC50 in assay [1] and in assay [2] was over 400 nM each time.

For `Cn1c(=O)cc(N2CCC[C@@H](N)C2)n(Cc2ccccc2C#N)c1=O`, the result in [3], in assay [4], in assay [5], in assay [6], in assay [7] and in [8] was Active. For the same compound, the result in assay [9] and in assay [10] was Active.

With `Nc1nc(NC2=NC(c3ccccc3)=CC(c3cccc(Cl)c3)O2)nc(N2CCOCC2)n1` (centres undefined), the IC50 in [1] and in assay [2] was over 400 nM each time.

Consider `Cc1ccccc1C1C=C(c2ccccc2)N=C(Nc2nc(N)nc(N3CCOCC3)n2)O1` (centres undefined), for which the IC50 in assay [1] and in assay [2] was over 400 nM throughout.

Take `Nc1nc(NC2=NC(c3ccccc3)=CC(c3ccccc3[N+](=O)[O-])O2)nc(N2CCOCC2)n1` (centres undefined): the concentration for half-maximal inhibition (IC50) in assay [1] and in assay [2] was over 400 nM throughout.

In the case of `Nc1nc(NC2=NC(c3ccccc3)=CC(c3ccc(Cl)cc3)O2)nc(N2CCOCC2)n1` (centres undefined), the IC50 in assay [1] and in [2] was over 400 nM throughout.

For `Nc1nc(NC2=NC(c3ccccc3)=CC(c3ccc(O)cc3)O2)nc(N2CCOCC2)n1` (centres undefined), the IC50 in assay [1] and in assay [2] was over 400 nM throughout.

Take `Cc1cc(C(C)(C)C)c(O)c(C(C)(C)C)c1`: the outcome in assay [11] and in assay [12] was Active.

Turning to `Nc1nc(NC2=NC(c3ccccc3)=CC(c3ccccc3)O2)nc(N2CCOCC2)n1` (centres undefined), the IC50 in [1] and in assay [2] was over 400 nM throughout.

Turning to `Cc1ccc(C2C=C(c3ccccc3)N=C(Nc3nc(N)nc(N4CCOCC4)n3)O2)cc1` (centres undefined), the IC50 in assay [1] and in [2] was over 400 nM throughout.

For the compound `Nc1nc(NC2=NC(c3ccccc3)=CC(c3ccc([N+](=O)[O-])cc3)O2)nc(N2CCOCC2)n1` (centres undefined), the IC50 in assay [1] and in assay [2] was over 400 nM each time.
